≈ marks a conversion by molar mass, not a printed value. Where “and” joins values, the source holds several entries; their conditions need not be identical. Equal values may be shown once. Read-outs that look alike come from different tables or passages of the source.
Experiments:
SKBR3 = assay: Inhibition of cancer cell growth as measured by cell number, SKBR3; format: cell-based, human; details: for IC50: Homo sapiens, Table 8;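 for all read-outs here: SK-BR-3 cells were selected as a line overexpressing HER2/neu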
Description: (§1) The cell lines were chosen since they overexpressed epidermal growth factor receptor (EGFR) (i.e. A431) or HER2/neu (SKBR3), or had little to no expression of the these receptors (SW620, LOX, MCF7).

MCF7 = assay: Inhibition of cancer cell growth as measured by cell number, MCF7; format: cell-based, human; details: Table 8; for IC50: Homo sapiens, MCF7, 48 h;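 for all read-outs here: MCF7 was included as a line with little or no EGFR or HER2/neu expression, in contrast to the receptor-overexpressing lines of the panel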
Description: as §1

SW620 = assay: Inhibition of cancer cell growth as measured by cell number, SW620; format: cell-based, human; details: for IC50: Homo sapiens, SW-620, 48 h;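 for all read-outs here: SW620 was included as a cell line with little or no EGFR or HER2/neu expression, in contrast to receptor-overexpressing lines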
Description: as §1

LOX = assay: Inhibition of cancer cell growth as measured by cell number, LOX; format: cell-based, human; details: Table 8; for IC50: Homo sapiens, LOX, 48 h;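 for all read-outs here: LOX cells served as a line with low or absent EGFR and HER2/neu expression, in contrast to receptor-overexpressing lines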
Description: as §1

[1] = target: recombinant human MEK 1 (MAPKK) and recombinant human ERK2 (MAPK); assay: Mitogen Activated Protein Kinase (MAPK) assay, two component coupled MEK 1 / ERK2; format: biochemical; details: separate entries for the same compound = evaluated more than one time;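 note: MEK 1-activated ERK2 phosphorylates MBP or Myc peptide with 33P-ATP, filter capture and scintillation counting, inhibitor preincubated with ERK2 30 min at 0 °C, inhibition relative to uninhibited control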
A431 = assay: Inhibition of cancer cell growth as measured by cell number, A431; format: cell-based, human; details: for IC50: Homo sapiens, A-431, 48 h;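 for all read-outs here: human A431 line, picked because it overexpresses epidermal growth factor receptor (EGFR)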
Description: as §1

[2] = target: T1, His-tagged cytoplasmic domain of EGFR (Homo sapiens, UniProt P00533); assay: Inhibition of Epidermal Growth Factor Receptor Kinase (EGF-R) using recombinant enzyme; format: biochemical; details: recombinant enzyme; RR-SRC peptide; average of the number of tests; read-out: IC50;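 note: radiometric kinase assay measuring radiolabeled phosphate transfer from ATP onto the peptide tyrosine by scintillation counting, control is reaction without compound, background subtracted, IC50 from dose-response curve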
T1 construct: containing the EGFR cDNA encoding amino acids 645 - 1186 preceded by Met-Ala-(His)6; made in house; host or cells: Sf9 cells, recombinant baculovirus vHcEGFR52
Protocol: The enzyme used in this assay is the His-tagged cytoplasmic domain of EGFR.
Compounds to be evaluated were made into 10 mg/mL stock solutions in 100% dimethylsulfoxide (DMSO). Prior to experiment, stock solutions were diluted to 500 µM with 100% DMSO and then serially diluted to the desired concentration with HEPES buffer (30 mM HEPES pH 7.4).
For the enzyme reaction, 10 µL of each inhibitor (at various concentrations) were added to each well of a 96-well plate. […] This was allowed to sit for 10 min on ice and was followed by the addition of 5 µl peptide (80 µM final conc.), 10µl of 4X Buffer (Table A), 0.25 µL ^33P-ATP and 12 µL H2O. The reaction was allowed to run for 90 min at room temperature and was followed by spotting the entire volume on to precut P81 filter papers. The filter discs were washed 2X with 0.5% phosphoric acid and radioactivity was measured using a liquid scintillation counter.
The % inhibition of the test compound was determined for at least three different concentrations and the IC50 value was evaluated from the dose response curve. […] CPM(control) is in units of counts per minute and was a number expressing the amount of radiolabeled ATP (g-33P) incorporated into the RR-SRC peptide substrate by the enzyme after 90 minutes at room temperature in the absence of test compound as measured by liquid scintillation counting. The CPM values were corrected for the background counts produced by ATP in the absence of the enzymatic reaction. The IC50 values reported in TABLE 2 are averages of the number of tests conducted.

[3] = SK-BR-3, 48 h, read-out: IC50 SKBR3, cell number, Sulforhodamine B, 48 hours exposure
[4] = read-out: IC50 MCF7, cell number, Sulforhodamine B, 48 hours exposure
[5] = read-out: IC50 SW620, cell number, Sulforhodamine B, 48 hours exposure, Table 8
[6] = read-out: IC50 LOX, cell number, Sulforhodamine B, 48 hours exposure
[7] = cell number, Sulforhodamine B, 48 hours exposure, read-out: IC50 LOX
[8] = SK-BR-3, cell number, Sulforhodamine B, 48 hours exposure, read-out: IC50 SKBR3
[9] = cell number, Sulforhodamine B, 48 hours exposure, read-out: IC50 MCF7
[10] = cell number, Sulforhodamine B, 48 hours exposure, Table 8, read-out: IC50 SW620
[11] = cell number, Sulforhodamine B, 48 hours exposure, Table 8, read-out: IC50 A431
[12] = read-out: IC50 A431, cell number, Sulforhodamine B, 48 hours exposure, Table 8
[13] = cell number, Sulforhodamine B, 48 hours exposure
[14] = cell number, Sulforhodamine B, 48 hours exposure, Table 8

T1 sequence (P00533 669-1210): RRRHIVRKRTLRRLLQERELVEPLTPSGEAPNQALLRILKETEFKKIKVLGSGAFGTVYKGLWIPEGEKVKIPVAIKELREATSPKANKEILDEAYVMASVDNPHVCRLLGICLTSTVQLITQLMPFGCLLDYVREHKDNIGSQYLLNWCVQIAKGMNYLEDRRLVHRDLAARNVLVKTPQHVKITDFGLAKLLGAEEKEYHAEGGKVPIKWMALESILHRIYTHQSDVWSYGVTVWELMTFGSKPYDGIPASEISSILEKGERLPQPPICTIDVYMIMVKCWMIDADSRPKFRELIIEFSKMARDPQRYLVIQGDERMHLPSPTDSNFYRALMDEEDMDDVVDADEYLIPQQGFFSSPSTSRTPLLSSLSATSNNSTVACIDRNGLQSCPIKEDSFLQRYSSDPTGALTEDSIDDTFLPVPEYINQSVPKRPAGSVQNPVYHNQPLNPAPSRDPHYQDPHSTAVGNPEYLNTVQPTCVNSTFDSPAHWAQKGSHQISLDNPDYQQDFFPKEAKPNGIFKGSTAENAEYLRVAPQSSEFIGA

| SMILES | IC50 (SKBR3; [3]) | IC50 (MCF7; [4]) | IC50 (SW620; [5]) | IC50 (LOX; [6]) | IC50 [1] | IC50 (A431; [12]) | IC50 [2] | also measured |
| --- | --- | --- | --- | --- | --- | --- | --- | --- |
| COc1cc2ncc(C#N)c(Nc3cccc(F)c3)c2cc1OC [Example 35, 4-[(3-Fluorophenyl)amino]-6,7-dimethoxy-3-quinolinecarbonitrile] | 0.93 µg/mL (≈ 2.88 µM) | 40.9 µg/mL (≈ 126 µM) | 6.4 µg/mL (≈ 19.8 µM) |  |  |  |  | IC50 (SW620; read-out: IC50 SW620, cell number, Sulforhodamine B, 48 hours exposure, Table 4): 9.57 µg/mL (≈ 29.6 µM) |
| COCCOc1cc2ncc(C#N)c(Nc3cccc(Br)c3)c2cc1OCCOC [Example 311, 4-[(3-Bromophenyl)amino]-6,7-bis(2-methoxyethoxy)-3-quinolinecarbonitrile] | 0.7 µg/mL (≈ 1.48 µM) |  | 1 µg/mL (≈ 2.12 µM) | 2.8 µg/mL (≈ 5.93 µM) | 2 µM and 2.5 µM |  |  |  |
| C=CC(=O)Nc1ccc2ncc(C#N)c(Nc3cccc(N(C)C)c3)c2c1 [Example 391, N-[3-Cyano-4-(3-dimethylaminophenylamino)quinolin-6-yl]acrylamide] |  |  |  |  | > 100 µM |  |  | IC50 (LOX; [7]): 0.1 µg/mL (≈ 0.28 µM); IC50 (SKBR3; [8]): 0.4 µg/mL (≈ 1.12 µM); IC50 (MCF7; [9]): 6.53 µg/mL (≈ 18.3 µM); IC50 (SW620; [10]): 5.23 µg/mL (≈ 14.6 µM); IC50 (A431; [11]): 0.34 µg/mL (≈ 0.951 µM) |
| N#Cc1cnc2ccc(N)cc2c1Nc1ccc(F)c(F)c1 [Example 155, 6-Amino-4-[(3.4-difluorophenyl)amino]-3-quinolinecarbonitrile] | 3.28 µg/mL (≈ 11.1 µM) | 7.49 µg/mL (≈ 25.3 µM) | 7.55 µg/mL (≈ 25.5 µM) | 6.08 µg/mL (≈ 20.5 µM) |  | 4.3 µg/mL (≈ 14.5 µM) |  |  |
| N#Cc1cccc(Nc2c(C#N)cnc3ccc(N)cc23)c1 [Example 162, 6-Amino-4-[(3-cyanophenyl)amino]-3-quinolinecarbonitrile] | 7.15 µg/mL (≈ 25.1 µM) | 16.4 µg/mL (≈ 57.3 µM) | 33.5 µg/mL (≈ 118 µM) | 8.13 µg/mL (≈ 28.5 µM) | 35 µM | 6.87 µg/mL (≈ 24.1 µM) |  |  |
| CCOc1cc2ncc(C#N)c(N(C)c3ccccc3)c2cc1OCC [Example 258, 4-(N-Methylphenylamino)-6,7-diethoxy-3-quinolinecarbonitrile] |  | 7.87 µg/mL (≈ 22.7 µM) |  | 6.12 µg/mL (≈ 17.6 µM) |  | 4.67 µg/mL (≈ 13.4 µM) |  | IC50 LOX (LOX; [13]): 10.72 µg/mL (≈ 30.9 µM); IC50 MCF7 (MCF7; [13]): 9.69 µg/mL (≈ 27.9 µM); IC50 A431 (A431; [14]): 5.42 µg/mL (≈ 15.6 µM) |
| C=CC(=O)Nc1ccc2ncc(C#N)c(Nc3cccc(C#N)c3)c2c1 [Example 160, N-[3-Cyano-4-[(3-cyanophenyl)amino]-6-quinolinyl}-2-propenamide] | 0.5 µg/mL (≈ 1.47 µM) |  | 2.3 µg/mL (≈ 6.78 µM) |  | 30 µM | 0.2 µg/mL (≈ 0.589 µM) | 2 nM |  |
| CC#CC(=O)Nc1cc(CN(C)C)c2ncc(C#N)c(Nc3cccc(Br)c3)c2c1 [Example 110, N-{4-[(3-Bromophenyl)amino]-3-cyano-8-dimethylaminomethyl-6-quinolinyl} -2-butynamide] | 1.3 µg/mL (≈ 2.81 µM) |  | 0.7 µg/mL (≈ 1.51 µM) | 0.8 µg/mL (≈ 1.73 µM) | 40 µM | 0.9 µg/mL (≈ 1.95 µM) |  |  |
| COc1cccc(Nc2c(C#N)cnc3ccc(NC(=O)C#CCN4CCCCC4)cc23)c1 [Example 140, N-{3-cyano-4-[(3-methoxyphenyl)amino]-6-quinolinyl}-4-piperidino-2-butynamide] | 0.02 µg/mL (≈ 0.0455 µM) |  | 0.1 µg/mL (≈ 0.228 µM) |  | > 100 µM | 0.02 µg/mL (≈ 0.0455 µM) | 0.6 nM |  |
| C#Cc1cccc(Nc2c(C#N)cnc3ccc([N+](=O)[O-])cc23)c1 [Example 168, 4-[(3-Ethynylphenyl)amino]-6-nitro-3-quinolinecarbonitrile] | 1.38 µg/mL (≈ 4.39 µM) | 5.94 µg/mL (≈ 18.9 µM) | 9.1 µg/mL (≈ 29 µM) | 1.76 µg/mL (≈ 5.6 µM) | 80 µM | 1.57 µg/mL (≈ 5 µM) |  |  |
| CCOc1cc2ncc(C#N)c(Nc3cccc(F)c3)c2cc1OCC [Example 263, 4-(3-Fluorophenylamino)-6,7-diethoxy-3-quinolinecarbonitrile] |  |  |  |  | 80 µM |  |  | IC50 (LOX; [7]): 5.66 µg/mL (≈ 16.1 µM); IC50 (SKBR3; [8]): 7.5 µg/mL (≈ 21.3 µM); IC50 (MCF7; [9]): 8.44 µg/mL (≈ 24 µM); IC50 (SW620; [10]): 5.79 µg/mL (≈ 16.5 µM); IC50 (A431; [11]): 6.9 µg/mL (≈ 19.6 µM) |
| N#Cc1cccc(Nc2c(C#N)cnc3ccc([N+](=O)[O-])cc23)c1 [Example 163, 4-[(3-Cyanophenyl)amino]-6-nitro-3-quinolinecarbonitrile] | 7.28 µg/mL (≈ 23.1 µM) | 17.4 µg/mL (≈ 55.3 µM) | 47.3 µg/mL (≈ 150 µM) | 64.2 µg/mL (≈ 204 µM) | > 100 µM | 7.02 µg/mL (≈ 22.3 µM) |  |  |
| CCN1CCN(CC#CC(=O)Nc2ccc3ncc(C#N)c(Nc4cccc(Br)c4)c3c2)CC1 [Example 188, N-[4-[(3-Bromophenyl)amino]-3-cyano-6-quinolinyl]-4-(N-ethylpiperazino)-2-butynamide] |  | 1.43 µg/mL (≈ 2.76 µM) |  |  |  | 0.54 µg/mL (≈ 1.04 µM) | 1 nM | IC50 MCF7 (MCF7; [13]): 0.8 µg/mL (≈ 1.55 µM); IC50 A431 (A431; [14]): 0.4 µg/mL and 0.579 µg/mL |
| CCCN(CC#CC(=O)Nc1ccc2ncc(C#N)c(Nc3cccc(Br)c3)c2c1)CCC [Example 170] |  |  |  |  | > 100 µM |  | 60 nM | IC50 SKBR3 (SKBR3): 0.03 µg/mL (≈ 0.0595 µM); IC50 SW620 (SW620): 0.1 µg/mL (≈ 0.198 µM); IC50 A431 (A431): 0.03 µg/mL (≈ 0.0595 µM) |
| CCOc1cc2ncc(C#N)c(Nc3ccc(Sc4ccccc4)c(Cl)c3)c2cc1OCC [Example 254, 4-[3-Chloro-4-(phenylthio)phenylamino]-6,7-diethoxy-3-quinolinecarbonitrile] | 0.01 µg/mL (≈ 0.021 µM) | 0.07 µg/mL (≈ 0.147 µM) | 0.03 µg/mL (≈ 0.063 µM) | 0.07 µg/mL (≈ 0.147 µM) |  | 0.07 µg/mL (≈ 0.147 µM) |  |  |
| CC#CC(=O)Nc1ccc2ncc(C#N)c(Nc3ccc(Sc4ccccc4)c(Cl)c3)c2c1 [Example 157] | 2.6 µg/mL (≈ 5.55 µM) |  | 4.17 µg/mL (≈ 8.89 µM) |  | 90 µM | 3.26 µg/mL (≈ 6.95 µM) | 45 nM |  |
| N#Cc1cccc(Nc2c(C#N)cnc3ccc(NC(=O)C#CCN4CCCCC4)cc23)c1 [Example 161, N-{3-Cyano-4-[(3-cyanophenyl)amino]-6-quinolinyl}-4-piperidino-2-butynamide] | 0.04 µg/mL (≈ 0.0921 µM) |  | 0.2 µg/mL (≈ 0.46 µM) |  | 55 µM | 0.1 µg/mL (≈ 0.23 µM) | 0.35 nM |  |
| N#Cc1cnc2ccc(N)cc2c1Nc1ccc(Sc2ccccc2)c(Cl)c1 [Example 158, 6-Amino-4-[(3-chloro-4-thiophenoxyphenyl)amino]-3-quinolinecarbonitrile] | 0.8 µg/mL (≈ 1.99 µM) | 5.44 µg/mL (≈ 13.5 µM) | 4.08 µg/mL (≈ 10.1 µM) | 2.44 µg/mL (≈ 6.06 µM) |  | 2.97 µg/mL (≈ 7.37 µM) |  |  |
| CCN(CC)CC#CC(=O)Nc1ccc2ncc(C#N)c(Nc3ccc(F)c(Cl)c3)c2c1 [Example 189, N-[4-[(3-Chloro-4-fluorophenyl)amino]-3-cyano-6-quinolinyl]-4-diethylamino-2-butynamide] | 0.03 µg/mL (≈ 0.0667 µM) |  | 0.1 µg/mL (≈ 0.222 µM) |  | 50 µM | 0.04 µg/mL (≈ 0.0889 µM) | 2 nM |  |
| COc1cc2c(Nc3ccc(O)cc3C)c(C#N)cnc2cc1OCCCN1CCOCC1 [Example 312, 4-(4-Hydroxy-2-methyl-phenylamino)-6-methoxy-7-(3-morpholin-4-yl-propoxy)-quinoline-3-carbonitrile] |  |  |  |  | > 100 µM |  | 50 nM | IC50 (SKBR3; [8]): 2.25 µg/mL (≈ 5.03 µM); IC50 (SW620; [10]): 3.53 µg/mL (≈ 7.88 µM); IC50 (A431; [11]): 0.491 µg/mL (≈ 1.09 µM) |
| CN(C)Cc1cc(N)cc2c(Nc3cccc(Br)c3)c(C#N)cnc12 [Example 109, 6-Amino-4-[(3-bromophenyl)amino]-8-dimethylaminomethyl-3-quinolinecarbonitrile] | 30.7 µg/mL (≈ 77.4 µM) | 37.9 µg/mL (≈ 95.7 µM) | 40.8 µg/mL (≈ 103 µM) | 35.1 µg/mL (≈ 88.5 µM) |  | 38.9 µg/mL (≈ 98 µM) |  |  |
| CC(C)(C)[Si](C)(C)OCC#CC(=O)Nc1ccc2ncc(C#N)c(Nc3cccc(Br)c3)c2c1 [Example 331, N-[4-[(3-Bromophenyl)amino]-3-cyano-6-quinolinyl]-4-t-butyldimethylsiloxy-2-butynamide] |  |  |  |  |  |  |  | IC50 (LOX; [7]): 0.04 µg/mL (≈ 0.0747 µM); IC50 (SKBR3; [8]): 0.16 µg/mL (≈ 0.299 µM); IC50 (MCF7; [9]): 0.44 µg/mL (≈ 0.822 µM); IC50 (SW620; [10]): 0.04 µg/mL (≈ 0.0747 µM); IC50 (A431; [11]): 0.03 µg/mL (≈ 0.056 µM) |

— patent EP0973746B1, “SUBSTITUTED 3-CYANO QUINOLINES” (Wyeth Holdings Corporation, priority 1997, dated 1998)
